Patent US7888332B2, “Hydrazide-containing CFTR inhibitor compounds and uses thereof” (The Regents of the University of California, priority 2004, dated 2011)

What was measured:
CFTR [1] = target: T1, CFTR (Homo sapiens, UniProt P13569); assay: Whole-cell patch-clamp on FRT cells expressing CFTR; assay type: cell-based; design: expressed in transfected cells; host or cells: Fisher Rat Thyroid (FRT) cells, stably transfected; settings: for Ki: 5 μM forskolin, read-out: apparent Ki
Procedure: (§1) Patch-clamp experiments were carried out at room temperature on FRT cells stably expressing wildtype CFTR. Cell-attached and whole-cell configurations were used (Hamill et al., Pflugers Arch. 391:85-100, 1981). The cell membrane was clamped at specified voltages using an EPC-7 patch-clamp amplifier (List Medical). Data were filtered at 500 Hz and digitized at 2000 Hz. For whole-cell experiments the pipette solution contained (in mM): 120 CsCl, 10 TEA-Cl, 0.5 EGTA, 1 MgCl2, 40 mannitol, 10 Cs-HEPES and 3 mM MgATP (pH 7.3). For cell attached experiments EGTA was replaced with 1 mM CaCl2. The bath solution for whole-cell experiments contained (in mM): 150 NaCl, 1 CaCl2, 1 MgCl2, 10 glucose, 10 mannitol, 10 Na-TES (pH 7.4). In cell-attached experiments the bath solution contained (in mM): 130 KCl, 2 NaCl, 2 CaCl2, 2 MgCl2, 10 glucose, 20 mannitol, and 10 K-Hepes (pH 7.3). Inhibitors were applied by extracellular perfusion. CFTR channel activity in cell-attached patches was analyzed as described previously (Taddei et al., FEBS Lett. 558:52-56, 2004).
The mechanism of CFTR block by GlyH-101 was studied using the whole-cell configuration of the patch-clamp technique. After maximal activation of CFTR in stably transfected FRT cells by 5 μM forskolin, current-voltage relationships were measured at GlyH-101 concentrations from 0 to 50 μM. […] Extracellular perfusion with 10 μM GlyH-101 produced an immediate reduction in current that was strongly dependent on membrane potential (FIG. 4A, right panel). At more positive membrane potentials outward positive currents (Cl^− movement into the cell) were reduced compared to inward currents. […] Data for the thiazolidinone 3-[(3-trifluoromethyl)phenyl]-5-[(4-carboxyphenyl)methylene]-2-thioxo-4-thiazolidinone (referred to herein as CFTRinh-172) (5 μM) is shown for comparison. […] FIG. 4C summarizes percentage CFTR current block as a function of GlyH-101 concentration at different membrane voltages.

CFTR [2] = target: T1, CFTR; assay: Short-circuit current (apical Cl− current) analysis on permeabilized CFTR-expressing FRT cells
[3] = target: T2, CFTR (cAMP-stimulated short-circuit current) in T84 cells (Homo sapiens, UniProt P13569); assay: Short-circuit current in non-permeabilized T84 cells; assay type: cell-based
T2 construct: endogenous in cells; host or cells: T84 colon epithelial cells
Procedure: (§2) The efficacy of GlyH-101 in inhibiting cAMP/cholera toxin-induced intestinal fluid secretion was also evaluated. Short-circuit current experiments were done in different cell types and in intact mouse ileum under non-permeabilized conditions and in the absence of a Cl^− gradient. In each case CFTR was activated by CPT-cAMP after ENaC inhibition by amiloride. […] Inhibition was ˜100% at higher GlyH-101 concentrations. Cholera toxin-induced intestinal fluid secretion was measured in an in vivo closed-loop model in which loops for each mouse were injected with saline (control), cholera toxin (1 μg), or cholera toxin (1 μg)+GlyH-101 (0.25 μg). GlyH-101 was added to the lumen (rather than systemically) based on initial studies showing poor intestinal absorption and little effect of systemically administered compound. Compared to the saline control, the cholera toxin-induced increase in fluid secretion over 4 hours, quantified from loop weight-to-length ratio, was 80% reduced by GlyH-101.

CFTR [4] = target: T1, CFTR; assay: Cell-attached patch-clamp, CFTR single channel activity in FRT cells; assay type: cell-based; design: expressed in transfected cells; host or cells: Fisher Rat Thyroid (FRT) cells, stably transfected; settings: for Mean channel open time: +60 mV
Procedure: as §1
Cell-attached patch-clamp experiments were carried out to investigate the mechanism of GlyH-101 block of CFTR Cl^− current at the single-channel level. […] In the absence of the inhibitor, mean channel open time was 264±11 ms (SE, n=10). Mean channel open times at +60 mV at 0.4, 1, and 5 μM GlyH-101 were reduced to 181±29, 38±5, and 13±2 ms, respectively (n=5; p<0.01 for all concentrations vs. control).

[5] = Initial studies of GlyH-101 intestinal absorption and systemic administration; assay type: in vivo
Procedure: as §2

[6] = Spectrophotometric pH titration (pKa); assay type: physicochemical
Procedure: FIG. 5A is a graph illustrating the pH-dependent absorbance changes (right panel) of the chemical compounds (10 μM) (corresponding chemical structures, left panel) in NaCl (100 mM) containing MES, HEPES, boric acid, and citric acid (each 10 mM) titrated to different pH using HCl/NaOH. Absorbance changes measured at analytical wavelengths of 346, 348, 346, and 236 nm (top to bottom).

[7] = target: upper airway CFTR Cl− conductance (Mus musculus, UniProt P26361); assay: Nasal potential difference measurements in mice
[8] = target: T3, CFTR (cAMP-stimulated short-circuit current) in human airway cells (Homo sapiens, UniProt P13569); assay: Short-circuit current in human airway (primary human bronchial) cells; assay type: cell-based; settings: primary human bronchial cell cultures
T3 construct: endogenous in cells; host or cells: primary human bronchial epithelial cell cultures
Procedure: as §2

[9] = system: cholera toxin-induced intestinal fluid secretion; design: species or system mice; settings: mouse, in vivo
[10] = CPT-cAMP after amiloride, read-out: Ki for inhibition of cAMP-stimulated short-circuit current

T1 sequence (P13569 whole entry): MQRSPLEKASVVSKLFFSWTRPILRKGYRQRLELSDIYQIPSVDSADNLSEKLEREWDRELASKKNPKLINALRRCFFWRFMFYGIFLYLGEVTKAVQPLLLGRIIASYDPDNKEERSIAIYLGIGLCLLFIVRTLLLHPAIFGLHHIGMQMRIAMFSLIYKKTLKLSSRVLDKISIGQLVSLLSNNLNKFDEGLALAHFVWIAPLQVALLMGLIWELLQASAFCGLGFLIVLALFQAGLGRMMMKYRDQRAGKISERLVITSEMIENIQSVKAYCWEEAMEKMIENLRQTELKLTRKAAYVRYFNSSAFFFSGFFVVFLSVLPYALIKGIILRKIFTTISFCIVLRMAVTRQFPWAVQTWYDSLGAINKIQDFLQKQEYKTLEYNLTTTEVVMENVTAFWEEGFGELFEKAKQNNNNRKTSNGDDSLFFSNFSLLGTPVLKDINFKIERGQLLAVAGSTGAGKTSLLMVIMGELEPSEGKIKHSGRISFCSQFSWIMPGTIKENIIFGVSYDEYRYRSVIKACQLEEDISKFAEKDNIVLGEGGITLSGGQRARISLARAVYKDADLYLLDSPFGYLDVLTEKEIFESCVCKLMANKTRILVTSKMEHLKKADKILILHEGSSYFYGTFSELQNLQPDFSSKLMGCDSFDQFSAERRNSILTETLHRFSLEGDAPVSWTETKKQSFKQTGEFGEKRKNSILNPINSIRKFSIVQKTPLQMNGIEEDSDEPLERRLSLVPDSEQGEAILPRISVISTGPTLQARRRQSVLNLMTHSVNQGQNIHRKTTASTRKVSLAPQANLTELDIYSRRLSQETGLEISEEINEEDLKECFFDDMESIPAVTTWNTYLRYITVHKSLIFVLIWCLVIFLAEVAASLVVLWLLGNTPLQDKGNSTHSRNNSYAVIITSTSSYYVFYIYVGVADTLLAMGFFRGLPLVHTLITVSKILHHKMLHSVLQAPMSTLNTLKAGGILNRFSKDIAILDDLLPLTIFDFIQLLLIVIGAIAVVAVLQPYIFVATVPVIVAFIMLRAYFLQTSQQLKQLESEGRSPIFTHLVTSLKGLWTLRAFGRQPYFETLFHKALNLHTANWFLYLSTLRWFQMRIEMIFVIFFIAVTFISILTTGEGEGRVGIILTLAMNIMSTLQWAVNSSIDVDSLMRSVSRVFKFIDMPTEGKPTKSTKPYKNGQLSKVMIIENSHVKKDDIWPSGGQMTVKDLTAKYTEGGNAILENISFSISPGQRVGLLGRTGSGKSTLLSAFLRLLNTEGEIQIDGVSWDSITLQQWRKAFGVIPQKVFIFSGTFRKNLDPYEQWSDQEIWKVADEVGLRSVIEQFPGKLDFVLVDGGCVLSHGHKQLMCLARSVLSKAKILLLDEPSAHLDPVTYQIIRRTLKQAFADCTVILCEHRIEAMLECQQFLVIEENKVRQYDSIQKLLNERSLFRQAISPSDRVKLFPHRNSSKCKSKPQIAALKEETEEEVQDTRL
Chain of upper airway CFTR Cl− conductance (P26361 whole entry): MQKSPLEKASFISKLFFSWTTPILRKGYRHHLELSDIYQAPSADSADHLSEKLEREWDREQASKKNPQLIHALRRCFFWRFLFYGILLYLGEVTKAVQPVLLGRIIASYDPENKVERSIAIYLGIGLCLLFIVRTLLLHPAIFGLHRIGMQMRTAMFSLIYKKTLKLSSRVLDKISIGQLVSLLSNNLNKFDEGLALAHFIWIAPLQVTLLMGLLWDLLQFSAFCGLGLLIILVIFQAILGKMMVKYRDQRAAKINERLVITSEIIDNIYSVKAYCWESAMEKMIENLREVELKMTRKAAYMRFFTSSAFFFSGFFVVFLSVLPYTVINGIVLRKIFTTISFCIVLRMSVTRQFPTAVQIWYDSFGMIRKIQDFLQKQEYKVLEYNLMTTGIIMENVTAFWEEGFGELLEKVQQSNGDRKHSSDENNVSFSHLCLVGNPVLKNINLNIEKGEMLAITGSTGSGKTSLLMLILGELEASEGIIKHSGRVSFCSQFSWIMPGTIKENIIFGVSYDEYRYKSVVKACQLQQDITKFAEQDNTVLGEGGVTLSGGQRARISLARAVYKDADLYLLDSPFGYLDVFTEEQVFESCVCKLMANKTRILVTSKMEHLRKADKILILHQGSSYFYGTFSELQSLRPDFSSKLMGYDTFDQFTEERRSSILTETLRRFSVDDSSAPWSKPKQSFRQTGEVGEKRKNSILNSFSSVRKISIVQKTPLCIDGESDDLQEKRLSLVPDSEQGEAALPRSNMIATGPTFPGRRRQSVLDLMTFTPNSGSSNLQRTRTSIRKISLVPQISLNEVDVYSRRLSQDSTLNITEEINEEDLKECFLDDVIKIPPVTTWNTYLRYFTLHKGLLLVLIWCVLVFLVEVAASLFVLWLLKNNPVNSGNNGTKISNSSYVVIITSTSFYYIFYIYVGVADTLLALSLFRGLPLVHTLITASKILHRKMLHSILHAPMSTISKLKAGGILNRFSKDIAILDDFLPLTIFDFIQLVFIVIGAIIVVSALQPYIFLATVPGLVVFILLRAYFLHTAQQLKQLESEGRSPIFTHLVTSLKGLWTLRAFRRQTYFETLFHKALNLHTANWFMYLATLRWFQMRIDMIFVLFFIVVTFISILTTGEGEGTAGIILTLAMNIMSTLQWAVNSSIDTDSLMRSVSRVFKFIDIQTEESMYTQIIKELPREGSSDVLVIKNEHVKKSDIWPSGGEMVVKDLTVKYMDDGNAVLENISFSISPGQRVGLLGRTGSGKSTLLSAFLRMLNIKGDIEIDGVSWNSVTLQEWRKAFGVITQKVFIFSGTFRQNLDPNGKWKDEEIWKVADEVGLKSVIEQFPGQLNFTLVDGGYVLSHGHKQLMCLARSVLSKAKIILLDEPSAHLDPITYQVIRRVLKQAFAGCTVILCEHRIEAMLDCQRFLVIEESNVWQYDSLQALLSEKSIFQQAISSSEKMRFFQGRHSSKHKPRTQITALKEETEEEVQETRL
T2 sequence (P13569 whole entry): as the sequence (P13569 whole entry) above
T3 sequence (P13569 whole entry): as above

SMILES: O=C(CNc1ccc2ccccc2c1)NN=Cc1cc(Br)c(O)c(Br)c1O [GlyH-101, N-2-napthalenyl-[(3,5-dibromo-2,4-dihydroxyphenyl)methylene]glycine hydrazide]
- increase of apparent Ki as applied potential varied from +60 to −60 mV (CFTR [1]): approximately four-fold
- Hill coefficient nH (CFTR [1]; +20 mV): 0.7
- Ki (CFTR [1]; +20 mV): 3.8 µM
- Hill coefficient nH (CFTR [1]; +60 mV): 0.5
- Ki (CFTR [1]; +60 mV): 1.4 µM
- current-voltage relationship (CFTR [1]; GlyH-101 at submaximal concentrations, CFTRinh-172 5 μM): inward rectification
- Hill coefficient nH (CFTR [1]; −20 mV): 1.3
- Ki (CFTR [1]; −20 mV): 5 µM
- Hill coefficient nH (CFTR [1]; −60 mV): 1.8
- Ki (CFTR [1]; −60 mV): 5.6 µM
- inhibition of CFTR Cl− conductance at high concentrations (CFTR [1]; ≧30 μM, whole-cell patch-clamp and short-circuit current experiments): fully inhibited
- % inhibition at 50 μM (CFTR [2]; Table 1, Group I, 50 μM): 95%
- Ki (CFTR [2]; Table 1, Group I, concentration giving 50% inhibition of CFTR Cl− conductance): 5 µM
- pH dependence of Ki for inhibition of CFTR Cl− current (CFTR [2]; pH range 6-8): independent of pH
- Ki (CFTR [2]; read-out: Ki of screening hits, dose-response measurements, confirmed by short-circuit current analysis): ~5 µM
- Inhibition at higher concentrations [3]: ~100%
- Ki [3, 10]: ~5 µM
- change in single channel conductance (CFTR [4]; 0.4-5 μM): without a change
- Mean channel open time (CFTR [4]; 0.4 μM GlyH-101): 181 ± 29 ms
- Mean channel open time (CFTR [4]; 1 μM GlyH-101): 38 ± 5 ms
- Mean channel open time (CFTR [4]; 5 μM GlyH-101): 13 ± 2 ms
- effect of systemically administered compound [5]: little effect
- intestinal absorption [5]: poor
- pKa, first (para) phenolic hydroxyl [6]: ~5.5
- pKa, second ortho hydroxyl [6]: ~8.5
- pKa, secondary amine [6]: ~4.7
- ionic form ([6]; pH between 6 and 8): singly charged anion
- water solubility compared to CFTRinh-172 (Water solubility): 50 fold
- water solubility (Water solubility; in water, 22° C., pH 6-8): 800 to 1300 µM
- PD change (ΔPD), paired analysis ([7]; after ˜4 mV hyperpolarization by forskolin): depolarization of similar magnitude
- inhibition of forskolin-induced hyperpolarization ([7]; compound in all solutions (10 μM)): substantial inhibition
- effect on forskolin-induced hyperpolarization of nasal PD ([7]; topical in perfusate, 10 μM): rapidly reversed
- Inhibition at higher concentrations [8]: ~100%
- Ki [8, 10]: ~5 µM
- reduction of cholera toxin-induced increase in fluid secretion (loop weight-to-length ratio) [9]: 80%
